This note sets out measurements from ChEMBL document CHEMBL3352051, “Isolation, structure determination and cytotoxicity studies of tryptophan alkaloids from an Australian marine sponge Hyrtios sp” (Bioorg Med Chem Lett, 2014).

Test [1] relates to LNCaP. The test can be described thus: Selectivity index, ratio of IC50 for human NFF cells to IC50 for human LNCaP cells. In kind it is functional.
For test [2], the system named is LNCaP. Briefly: Cytotoxicity against human LNCAP cells after 72 hrs by Alamar Blue assay. In kind it is functional, cell-based. On the technique in general: The colour change of resazurin is a common sign of viable cells or microbes.
The subject of the next test is NFF. Briefly: Cytotoxicity against human NFF cells after 72 hrs by Alamar Blue assay. In kind it is cell-based.
A further test has as its system Malme-3M. The test can be described thus: Antiproliferative activity against human MALME-3M cells. In kind it is functional, cell-based.
Test [3] in a line: Antiproliferative activity against human OVCAR3 cells. In kind it is functional, cell-based. As to conditions: OVCAR-3.
The next test deals with MCF7. Briefly: Antiproliferative activity against human MCF7 cells. In kind it is functional, cell-based.

A word on the IC50: it is the concentration needed to halve the response being measured. Read a low IC50 as inhibition by little substance. The EC50 is the concentration needed to bring the measured effect to its halfway point. Lower therefore signals higher potency in that assay.

For `O=C(O)c1ccccc1-[n+]1ccc2c(c1)[nH]c1ccccc12.[Cl-]` [RETICULATATE], the “Ratio IC50” value in the test with LNCaP [1] stood at 0.77. For the same compound, the IC50 in the test with LNCaP [2] was 25.9 µM; in the test on NFF, 19.8 µM.
With `O=C1c2ccccc2-[n+]2ccc3c([nH]c4ccccc43)c21` [FASCAPLYSIN], the figures for the EC50 (in the test on Malme-3M; in test [3]; in the test on MCF7) were 0.03 µg/mL, 0.16 µg/mL and 0.14 µg/mL, respectively. Moreover, the “Ratio IC50” value in the test on LNCaP [1] worked out at 0.63. In addition, the IC50 is 0.54 µM in the test on LNCaP [2] and 0.339 µM with NFF.
Regarding `O=C(O)c1ccccc1-n1ccc2c([nH]c3ccccc32)c1=O`, the “Ratio IC50” value with LNCaP [1] worked out at 1.06. For the same compound, the IC50 with LNCaP [2] is 44.9 µM; with NFF it was 47.6 µM.
In the same order, the values of `COc1cccc2c1C(=O)c1c(O)c3c(c(O)c1C2=O)C[C@@](O)(C(=O)CO)C[C@@H]3O[C@H]1C[C@H](N)[C@H](O)[C@H](C)O1` [DOXORUBICIN] are 8.97, 0.0135 µM and 0.126 µM.
Regarding `O=C1c2ccccc2-n2c1c1[nH]c3ccccc3c1cc2=O`, the “Ratio IC50” value in the test on LNCaP [1] turned out to be 1.4. Besides, the IC50 in the test with LNCaP [2] was determined as 22.9 µM; with NFF, 32.1 µM.
